In general, Kd refers to the constant that tells how readily two partners part at equilibrium. As usually defined, the share remaining is what is left of the initial amount, in per cent. One may read the half-life as the time in which the quantity being followed falls by half. A lower half-life goes with rapid decline.

For data set [1], the target named is NbALFA. Kind of data set: SPR measurements of NbALFA binding (Biacore T200, multi cycle kinetics, 1:1 binding model). The method, then: Affinity measurements were performed using a Biacore T200 (GE Healthcare, Biacore T200 control Software 3.2). […] A freshly docked Biotin CAPture chip was rehydrated overnight in the instrument (standby mode). […] The immobilization of the Nanobody was done for 180 s at 10 μL/min on FC2 followed by quenching of unbound streptavidin by 0.1 mM biocytin for 60 s and 30 μL/min on both flow cells. […] After each cycle, the surface was regenerated for 120 s with 10 μL/min using regeneration solution. All measurements were performed at 25° C. using HBS-EP+ buffer (Cytiva Europe, Cat. no BR100669). The control responses from FC1 were subtracted by the sample measurement in FC2 (FC2−FC1) followed by subtraction of the 0 nM blank injection. Resulting binding curves of this multi cycle kinetic experiment were fitted using the Biacore T200 Evaluation Software 3.2 and a 1:1 binding model.
For orientation: In SPR one partner is held on a chip, and binding of the other changes the refractive index at the surface.

Data set [2] is described as follows: Plasma stability, mouse plasma. The note with it: for half-life: plasma.
Data set [3] is described as follows: Plasma stability, human plasma. The note with it: human, plasma, human plasma, 37° C.
[4] abbreviates: 25° C., HBS-EP+ buffer, biotinylated NbALFA captured.
The mark [5] stands for this setting: Balb C, mouse, Li-heparin plasma.
Where [6] appears, read: mouse plasma, 37° C., timepoint 0 h.
Where [7] appears, read: mouse plasma, 37° C., timepoint 1 h.
The mark [8] stands for this setting: mouse plasma, 37° C., timepoint 3 h.
Setting [9] is: mouse plasma, 37° C., timepoint 6 h.

Bridge positions count the residues as written; N and C are the ends. Square brackets hold non-standard residues; d marks the D form. Peptide text beside a SMILES is read from it.

`CC(=O)N1CCC[C@H]1C(=O)N[C@@H](CO)C(=O)N[C@@H](CCCNC(=N)N)C(=O)N[C@@H](CC(C)C)C(=O)N[C@@H](CCC(=O)O)C(=O)N[C@H]1CCC(=O)NCCCC[C@H](C(=O)N[C@@H](CCCNC(=N)N)C(=O)N[C@@H](CC(C)C)C(=O)N[C@H](C(=O)N[C@@H](CCC(=O)O)C(N)=O)[C@@H](C)O)NC(=O)[C@H](CCCNC(=N)N)NC(=O)[C@H](CC(C)C)NC(=O)[C@H](CCC(=O)O)NC1=O` [SD15808, Ac-Pro-Ser-Arg-Leu-Glu-(cyclo6)Glu-Glu-Leu-Arg-(cyclo10)dLys-Arg-Leu-Thr-Glu-NH2] (Ac-PSRLEEELR[dK]RLTE-NH2; lactam 6-10) showed a Kd in data set [1] (setting [4]) of 0.038 nM. Also, in data set [1] (setting [4]), the ka was 1.35e+07 M⁻¹ s⁻¹. The compound also registered a kd in data set [1] (setting [4]) of 0.000513 s⁻¹. The “binding with respect to NbALFA” value in data set [1] (in words) is reported as “very good binding”. Besides, the amount remaining at 1 h, 10 µM in data set [2] (setting [5]) came out at 86.9%. In addition, the amount remaining at 3 h, 10 µM in data set [2] (setting [5]) amounted to 73.7%. The amount remaining at 6 h, 10 µM in data set [2] (setting [5]) was determined as 61.1%. Also, in data set [2] (setting [6]), the “Conc. (% of T0)” value is recorded as 100.0 % of T0. The “Mean (compound concentration)” value in data set [2] (setting [6]) was determined as 3.198; in data set [2] (setting [7]), 2.780; in data set [2] (setting [8]) it was 2.357; in data set [2] (setting [9]) it was 1.955. Besides, the “Tube 2 (compound concentration)” value in data set [2] (setting [6]) worked out at 3.173; in data set [2] (setting [7]), 2.892; in data set [2] (setting [8]) it was 2.316; in data set [2] (setting [9]), 1.892. In addition, the “Tube 1 (compound concentration)” value in data set [2] (mouse plasma, 37° C., timepoint 0 h, calibration range 0.1 to 10 μM) is 3.223 x; in data set [2] (setting [7]), 2.668 x; in data set [2] (setting [8]) it was 2.398 x; in data set [2] (setting [9]), 2.018 x. Moreover, the half-life was more than 360 min in data set [2] (mouse, Flag (half-life, assay exceeded), mouse plasma, 37° C.); 524 min in data set [2] (mouse, Half-life time, mouse plasma, 37° C., incubation 24 h (triplicates) or 6 h (duplicates)); more than 360 min in data set [3] (Flag (half-life, assay exceeded)); 964 min in data set [3] (Half-life time, incubation 24 h (triplicates) or 6 h (duplicates)).

These data come from patent US20250154202A1, “CYCLIC EPITOPE TAGS” (BIONTECH SE, priority 2022, published 2025).
